In brackets after ≈: the same amount, converted by molar mass. Where two headings read alike, the source gives them in different places.
What was measured:
Format in all cases: cell-based
S. aureus RN4220 = assay: Minimal inhibitory concentration, S. aureus RN4220; settings: read-out: MIC (μM) S. aureus RN4220
Description: (§1) General Procedure for Determination of Minimal Inhibitory Concentrations
(§2) Overnight cultures (5 mL) of bacterial strains were grown in LB media or TSA media (for S. aureus) at 37° C. and with shaking at 220 rpm until saturation. The overnight culture was diluted serially 1:100 (50 μL in 5 mL sterile media) and then 1:100 (250 μL in 25 mL sterile media). The 25 mL of diluted culture was then dispensed to a sterile 96 well plate (Corning #3370). 198 μL of culture were dispensed into row A and 100 μL of this culture were dispensed into rows B-H. Aminocoumarin compound (DMSO stock) were added to the first row and then the row was mixed by pipetting. 100 μL of culture from row A were transferred to row B and the serial dilution continued until the final 100 μL from row H were discarded. The plate was incubated without shaking in a 37° C. for 16 hours and then read by visible light spectrophotometer (Molecular Devices) at 600 nm. The minimal inhibitory concentration (MIC) was determined as the lowest concentration of compound concentration that inhibited the growth of bacteria.
(§3) The compounds of the invention were assessed for activities against the pathogens S. aureus RN4220 and MW2, E. cloacae 13047, A. baumannii 19606, K. pneumoniae 700721, E. coli MC4100, 25922. All activities are reported in micromolar (uM) and are 16 hour minimal inhibitory concentrations at 37° C. The assay is detailed in Example 11 and is titled “General Procedure for Determination of Minimal Inhibitory Concentrations.”

S. aureus MW2 = assay: Minimal inhibitory concentration, S. aureus MW2; settings: read-out: MIC (μM) S. aureus MW2 (MRSA)
Description: as §1, §2, §3

E. cloacae 13047 = assay: Minimal inhibitory concentration, E. cloacae 13047; settings: read-out: MIC (μM) E. cloacae 13047
Description: as §1, §2, §3

A. baumannii 19606 = assay: Minimal inhibitory concentration, A. baumannii 19606; settings: read-out: MIC (μM) A. baumannii 19606
Description: as §1, §2, §3

K. pneumoniae 700721 = assay: Minimal inhibitory concentration, K. pneumoniae 700721; settings: read-out: MIC (μM) K. pneumoniae 700721
Description: as §1, §2, §3

E. coli MC4100 = assay: Minimal inhibitory concentration, E. coli MC4100; settings: read-out: MIC (μM) E. coli MC4100 ara+
Description: as §1, §2, §3

E. coli 25922 = assay: Minimal inhibitory concentration, E. coli 25922; settings: read-out: MIC (μM) E. coli 25922
Description: as §1, §2, §3

[1] = Staphylococcus aureus, RN4220, 16 h, 16 hour minimal inhibitory concentration at 37° C.
[2] = Staphylococcus aureus, MRSA, 16 h, 16 hour minimal inhibitory concentration at 37° C.
[3] = Enterobacter cloacae, 13047, 16 hour minimal inhibitory concentration at 37° C.
[4] = Acinetobacter baumannii, 19606, 16 h, 16 hour minimal inhibitory concentration at 37° C.
[5] = Klebsiella pneumoniae, 700721, 16 hour minimal inhibitory concentration at 37° C.
[6] = Escherichia coli, MC4100, 16 h, 16 hour minimal inhibitory concentration at 37° C.
[7] = Escherichia coli, 25922, 16 h, 16 hour minimal inhibitory concentration at 37° C.
[8] = Staphylococcus aureus, RN4220, 16 h
[9] = Staphylococcus aureus, MRSA, 16 h
[10] = Enterobacter cloacae, 13047, 16 h
[11] = Acinetobacter baumannii, 19606, 16 h
[12] = Klebsiella pneumoniae, 700721, 16 h
[13] = 16 hour minimal inhibitory concentration at 37° C.

Structure (SMILES) | MIC (S. aureus RN4220; [1]) [µM] | MIC (S. aureus MW2; [2]) [µM] | MIC (E. cloacae 13047; [3]) [µM] | MIC (A. baumannii 19606; [4]) [µM] | MIC (K. pneumoniae 700721; [5]) [µM] | MIC (E. coli MC4100; [6]) [µM] | MIC (E. coli 25922; [7]) [µM] | other results
CO[C@@H]1[C@@H](OC(N)=O)[C@@H](O)[C@H](Oc2ccc3c(O)c(NC(=O)c4cccc(Br)c4)c(=O)oc3c2C)OC1(C)C [Compound 232] | 82 (≈ 49.8 µg/mL) | 82 (≈ 49.8 µg/mL) | > 100 | > 50 | > 100 | > 200 | > 200 | 
CO[C@@H]1[C@@H](OC(N)=O)[C@@H](O)[C@H](Oc2ccc3c(O)c(NC(=O)c4ccc(N=[N+]=[N-])cc4)c(=O)oc3c2C)OC1(C)C [Compound 224] | 88 (≈ 50.1 µg/mL) | > 100 | > 100 | > 50 | > 100 |  | > 200 | 
CO[C@@H]1[C@@H](OC(=O)c2ccc(C)n2-c2ccccc2)[C@@H](O)[C@H](Oc2ccc3c(O)c(NC(=O)c4ccc(O)c(CC=C(C)C)c4)c(=O)oc3c2C)OC1(C)C [Compound 210] | 33 (≈ 24.8 µg/mL) | 33 (≈ 24.8 µg/mL) | > 100 | > 50 | > 100 | > 200 | > 200 | 
CO[C@@H]1[C@@H](OC(N)=O)[C@@H](O)[C@H](Oc2ccc3c(O)c(NC(=O)c4cccc(-c5ccccc5Br)c4)c(=O)oc3c2C)OC1(C)C [Compound 235] | 9 (≈ 6.15 µg/mL) | 5 (≈ 3.42 µg/mL) | > 100 | > 50 | > 100 | 18 (≈ 12.3 µg/mL) | 18 (≈ 12.3 µg/mL) | 
CO[C@@H]1[C@@H](OC(N)=O)[C@@H](O)[C@H](Oc2ccc3c(O)c(NC(=O)c4cccc(Oc5ccc(Cl)cc5)n4)c(=O)oc3c2C)OC1(C)C [Compound 238] | 10 (≈ 6.56 µg/mL) | 10 (≈ 6.56 µg/mL) | > 100 | > 50 | > 100 | 152 (≈ 99.7 µg/mL) | > 200 | 
CO[C@@H]1[C@@H](OC(N)=O)[C@@H](O)[C@H](Oc2ccc3c(O)c(NC(=O)c4cccc(Oc5ccc(C#N)cc5)c4)c(=O)oc3c2C)OC1(C)C [Compound 242] | > 100 | 77 (≈ 49.7 µg/mL) | > 100 | > 50 | > 100 | 153 (≈ 98.8 µg/mL) | 154 (≈ 99.4 µg/mL) | 
C#CCOc1cccc(C(=O)Nc2c(O)c3ccc(O[C@@H]4OC(C)(C)[C@H](OC)[C@@H](OC(N)=O)[C@H]4O)c(C)c3oc2=O)c1 [Compound 230] | 86 (≈ 50.1 µg/mL) | 86 (≈ 50.1 µg/mL) | > 100 | > 50 | > 100 | 86 (≈ 50.1 µg/mL) | 172 (≈ 100 µg/mL) | 
C#Cc1cccc(C(=O)Nc2c(O)c3ccc(O[C@@H]4OC(C)(C)[C@H](OC)[C@@H](OC(N)=O)[C@H]4O)c(C)c3oc2=O)c1 [Compound 229] | 90 (≈ 49.7 µg/mL) | 90 (≈ 49.7 µg/mL) | > 100 | > 50 | > 100 | > 200 | > 200 | 
CO[C@@H]1[C@@H](OC(=O)c2cc(C)c(C)[nH]2)[C@@H](O)[C@H](Oc2ccc3c(O)c(NC(=O)c4ccc(O)c(CC=C(C)C)c4)c(=O)oc3c2C)OC1(C)C [Compound 213] |  |  |  |  |  |  |  | MIC (S. aureus RN4220; [8]): 1.8 µM (≈ 1.24 µg/mL); MIC (S. aureus MW2; [9]): 0.45 µM (≈ 0.311 µg/mL); MIC (E. cloacae 13047; [10]): > 100 µM; MIC (A. baumannii 19606; [11]): 4.5 µM (≈ 3.11 µg/mL); MIC (K. pneumoniae 700721; [12]): > 100 µM; MIC (E. coli MC4100; Escherichia coli, MC4100, 16 h): > 200 µM; MIC (E. coli 25922; Escherichia coli, 25922, 16 h): > 200 µM
CO[C@@H]1[C@@H](O)[C@@H](OC(=O)c2cc(C)c(C)[nH]2)[C@H](Oc2ccc3c(O)c(NC(=O)c4ccc(O)c(CC=C(C)C)c4)c(=O)oc3c2C)OC1(C)C [Compound 214] |  |  |  |  |  |  |  | MIC (S. aureus RN4220; [8]): 5 µM (≈ 3.45 µg/mL); MIC (S. aureus MW2; [9]): 5 µM (≈ 3.45 µg/mL); MIC (E. cloacae 13047; [10]): > 100 µM; MIC (A. baumannii 19606; [11]): > 50 µM; MIC (K. pneumoniae 700721; [12]): > 100 µM; MIC (E. coli MC4100; Escherichia coli, MC4100, 16 h): > 200 µM; MIC (E. coli 25922; Escherichia coli, 25922, 16 h): > 200 µM
C=CCOc1c(NC(=O)c2ccc(O)c(CC=C(C)C)c2)c(=O)oc2c(C)c(O[C@@H]3OC(C)(C)[C@H](OC)[C@@H](OC(N)=O)[C@H]3O)ccc12 [Compound 212] | > 100 | > 100 | > 100 | > 50 | > 100 | > 200 | > 200 | 
CO[C@@H]1[C@@H](OC(N)=O)[C@@H](O)[C@H](Oc2ccc3c(O)c(NC(=O)c4cccc(-c5cc[nH]n5)c4)c(=O)oc3c2C)OC1(C)C [Compound 201] | 42 (≈ 25 µg/mL) | 42 (≈ 25 µg/mL) | > 100 | > 50 | > 100 | > 200 | > 200 | 
CO[C@@H]1[C@@H](OC(N)=O)[C@@H](O)[C@H](Oc2ccc3c(O)c(NC(=O)c4cccc(-c5ccc(Cl)c(Cl)c5)c4)c(=O)oc3c2C)OC1(C)C [Compound 222] | 0.46 (≈ 0.31 µg/mL) | 0.23 (≈ 0.155 µg/mL) | > 100 | 9 (≈ 6.06 µg/mL) | > 100 | 37 (≈ 24.9 µg/mL) | 37 (≈ 24.9 µg/mL) | 
CCNC(=O)O[C@H]1[C@H](Oc2ccc3c(O)c(NC(=O)c4ccc(O)c(CC=C(C)C)c4)c(=O)oc3c2C)OC(C)(C)[C@H](OC)[C@H]1O [Compound 104] |  |  |  |  |  |  |  | MIC (S. aureus RN4220; [13]): 2 µM (≈ 1.28 µg/mL); MIC (S. aureus MW2; [13]): 2 µM (≈ 1.28 µg/mL); MIC (E. cloacae 13047; [13]): >100 µM; MIC (A. baumannii 19606; [13]): 10 µM (≈ 6.41 µg/mL); MIC (K. pneumoniae 700721; [13]): >100 µM; MIC (E. coli MC4100; [13]): >200 µM; MIC (E. coli 25922; [13]): 156 µM (≈ 99.9 µg/mL)
CO[C@@H]1[C@@H](OC(N)=O)[C@@H](O)[C@H](Oc2ccc3c(O)c(NC(=O)c4ccc([N+](=O)[O-])c(Oc5ccccc5)c4)c(=O)oc3c2C)OC1(C)C [Compound 253] | 38 (≈ 25.3 µg/mL) | 38 (≈ 25.3 µg/mL) | > 100 | > 50 | > 100 | 75 (≈ 49.9 µg/mL) | 75 (≈ 49.9 µg/mL) | 
COc1cccc(Oc2cccc(C(=O)Nc3c(O)c4ccc(O[C@@H]5OC(C)(C)[C@H](OC)[C@@H](OC(N)=O)[C@H]5O)c(C)c4oc3=O)c2)c1 [Compound 240] | 19.2 (≈ 12.5 µg/mL) | 19.2 (≈ 12.5 µg/mL) | > 100 | > 50 | > 100 | 4.5 (≈ 2.93 µg/mL) | 38 (≈ 24.7 µg/mL) | 
CO[C@@H]1[C@@H](OC(N)=O)[C@@H](O)[C@H](Oc2ccc3c(O)c(NC(=O)c4cccc(-c5ccc(F)c(F)c5)c4)c(=O)oc3c2C)OC1(C)C [Compound 219] | 5 (≈ 3.2 µg/mL) | 5 (≈ 3.2 µg/mL) | > 100 | > 50 | 78 (≈ 50 µg/mL) | 39 (≈ 25 µg/mL) | 20 (≈ 12.8 µg/mL) | 
CO[C@@H]1[C@@H](OC(N)=O)[C@@H](O)[C@H](Oc2ccc3c(O)c(NC(=O)c4cccc(Oc5ccc(C(C)(C)C)cc5)c4)c(=O)oc3c2C)OC1(C)C [Compound 248] | 2.3 (≈ 1.56 µg/mL) | 2.3 (≈ 1.56 µg/mL) | > 100 | > 50 | > 100 | > 200 | 148 (≈ 100 µg/mL) | 
CO[C@@H]1[C@@H](OC(N)=O)[C@@H](O)[C@H](Oc2ccc3c(O)c(NC(=O)c4cc(C)oc4C)c(=O)oc3c2C)OC1(C)C [Compound 200] | 91 (≈ 49.7 µg/mL) | 91 (≈ 49.7 µg/mL) | > 100 | > 50 | > 100 | > 200 | > 200 | 
CO[C@@H]1[C@@H](OC(N)=O)[C@@H](O)[C@H](Oc2ccc3c(O)c(NC(=O)c4ccc5c(c4)oc4ccccc45)c(=O)oc3c2C)OC1(C)C [Compound 250] | 10 (≈ 6.19 µg/mL) | 10 (≈ 6.19 µg/mL) | > 100 | > 50 | > 100 | > 100 | > 200 | 
CO[C@@H]1[C@@H](OC(N)=O)[C@@H](O)[C@H](Oc2ccc3c(O)c(NC(=O)c4ccc(I)cc4)c(=O)oc3c2C)OC1(C)C [Compound 225] | 38 (≈ 24.9 µg/mL) | 38 (≈ 24.9 µg/mL) | > 100 | > 50 | > 100 |  | > 200 | 
